In ChEMBL document CHEMBL4602694, “Suppression of Drug-Resistant Non-Small-Cell Lung Cancer with Inhibitors Targeting Minichromosomal Maintenance Protein” (J Med Chem, 2020):
The source made the active and inactive calls. No cut-off for these calls is given here.

Legend:
NCI-H1975 [1] = assay: Induction of apoptosis in human NCI-H1975 cells xenografted in athymic nude BALB/c mouse at 1 or 4 mg/kg, ip administered for 4 weeks by hematoxylin and eosin staining based assay; format: functional, organism-based
NCI-H1975 [2] = assay: Induction of apoptosis in human NCI-H1975 cells assessed as increase in cleaved caspase 3 level at 140 nM incubated upto 72 hrs by immunoblotting analysis; format: functional, cell-based
[3] = biological target: DNA replication licensing factor MCM7 (Homo sapiens) (UniProt P33993); assay: Induction of ubiquitination of MCM7 in human NCI-H1975 cells incubated for 24 hrs by immunoblot analysis; format: cell-based
[4] = Toxicity in athymic nude BALB/c mouse xenografted with human NCI-H1975 cells assessed as effect on liver at 1 or 4 mg/kg, ip administered for 4 weeks; format: organism-based; details: in vivo, 672 h
NCI-H1975 [5] = assay: Cell cycle arrest in human NCI-H1975 cells assessed as replication fork at 140 nM incubated for 48 hrs by DAPI staining based immunofluorescence microscopy (reference value: 176.8 +/- 8.7); format: functional
NCI-H1975 [6] = assay: Antiproliferative activity against human NCI-H1975 cells assessed as reduction in cell viability incubated for 72 hrs by SRB assay; format: functional, cell-based; details: NCI-H1975, 72 h
NCI-H1975 [7] = assay: Cell cycle arrest in human NCI-H1975 cells assessed as BrdU positive cells at 140 nM incubated for 24 hrs by BrdUrd incorporation assay (reference value: 44.5 +/- 2 %); format: functional
[8] = Selectivity index, ratio of IC50 for human bronchial epithelial cells to IC50 for human PC9 cells; format: toxicity; details: human bronchial epithelial cells versus PC9 cells, read-out: Ratio IC50
[9] = biological target: DNA replication licensing factor MCM7 (Homo sapiens) (UniProt P33993); assay: Induction of ubiquitination of MCM7 in human NCI-H1975 cells incubated for 48 hrs by immunoblot analysis (reference value: 1); format: cell-based
NCI-H1975 [10] = assay: Cell cycle arrest in human NCI-H1975 cells assessed as accumulation in G2/M phase at 140 nM incubated for 72 hrs by propidium iodide base flow cytometry analysis (reference value: 17 %); format: functional
[11] = biological target: DNA replication licensing factor MCM2 (Homo sapiens) (UniProt P49736); assay: Induction of ubiquitination of MCM2 in human NCI-H1975 cells in presence of MLN4924 incubated for 24 hrs followed by MLN4924 addition and measured after 6 hrs by immunoblot analysis; format: cell-based
NCI-H1975 [12] = assay: Cell cycle arrest in human NCI-H1975 cells assessed as accumulation in S phase at 140 nM incubated for 72 hrs by propidium iodide base flow cytometry analysis (reference value: 2 %); format: functional
[13] = biological target: DNA replication licensing factor MCM2 (Homo sapiens) (UniProt P49736); assay: Induction of ubiquitination of FLAG-tagged MCM2 in human 293T cells incubated for 4 hrs by magnetic beads technique based immunoblot analysis; format: cell-based; details: HEK-293T
[14] = Selectivity index, ratio of IC50 for human bronchial epithelial cells to IC50 for human CL1-5 cells; format: toxicity; details: human bronchial epithelial cells versus CL1-5 cells, read-out: Ratio IC50
[15] = biological target: T1, DNA replication licensing factor MCM4 (Homo sapiens) (UniProt P33991); assay: Induction of ubiquitination of MCM4 in human NCI-H1975 cells incubated for 72 hrs by immunoblot analysis (reference value: 1); format: cell-based
T1 sequence (whole entry): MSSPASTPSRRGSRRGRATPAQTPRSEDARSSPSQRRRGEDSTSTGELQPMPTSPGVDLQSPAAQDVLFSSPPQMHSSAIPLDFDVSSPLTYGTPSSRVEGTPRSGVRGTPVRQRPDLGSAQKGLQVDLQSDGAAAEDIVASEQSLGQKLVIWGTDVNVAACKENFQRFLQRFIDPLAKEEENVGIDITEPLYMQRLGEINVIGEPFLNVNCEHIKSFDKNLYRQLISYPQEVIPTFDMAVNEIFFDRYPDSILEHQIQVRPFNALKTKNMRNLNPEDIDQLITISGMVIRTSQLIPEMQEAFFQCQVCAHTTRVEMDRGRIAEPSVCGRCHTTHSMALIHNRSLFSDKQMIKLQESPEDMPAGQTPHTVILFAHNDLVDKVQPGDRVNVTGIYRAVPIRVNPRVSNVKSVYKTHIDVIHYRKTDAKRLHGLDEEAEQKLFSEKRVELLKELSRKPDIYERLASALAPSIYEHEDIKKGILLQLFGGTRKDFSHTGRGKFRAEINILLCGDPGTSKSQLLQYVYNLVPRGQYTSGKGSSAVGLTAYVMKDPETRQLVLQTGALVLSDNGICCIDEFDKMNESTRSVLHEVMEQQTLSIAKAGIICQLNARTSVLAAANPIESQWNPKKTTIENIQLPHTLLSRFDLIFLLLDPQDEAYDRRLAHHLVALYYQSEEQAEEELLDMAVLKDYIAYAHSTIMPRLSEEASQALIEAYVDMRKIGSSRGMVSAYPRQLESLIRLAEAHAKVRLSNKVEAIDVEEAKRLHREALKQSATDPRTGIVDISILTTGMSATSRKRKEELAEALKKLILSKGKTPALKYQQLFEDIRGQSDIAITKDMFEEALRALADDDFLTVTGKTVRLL

[16] = biological target: T2, DNA replication licensing factor MCM6 (Homo sapiens) (UniProt Q14566); assay: Induction of ubiquitination of MCM6 in human NCI-H1975 cells in presence of MG132 incubated for 48 hrs followed by MG132 addition and measured after 12 hrs by immunoblot analysis (reference value: 1.8); format: cell-based
T2 sequence (whole entry): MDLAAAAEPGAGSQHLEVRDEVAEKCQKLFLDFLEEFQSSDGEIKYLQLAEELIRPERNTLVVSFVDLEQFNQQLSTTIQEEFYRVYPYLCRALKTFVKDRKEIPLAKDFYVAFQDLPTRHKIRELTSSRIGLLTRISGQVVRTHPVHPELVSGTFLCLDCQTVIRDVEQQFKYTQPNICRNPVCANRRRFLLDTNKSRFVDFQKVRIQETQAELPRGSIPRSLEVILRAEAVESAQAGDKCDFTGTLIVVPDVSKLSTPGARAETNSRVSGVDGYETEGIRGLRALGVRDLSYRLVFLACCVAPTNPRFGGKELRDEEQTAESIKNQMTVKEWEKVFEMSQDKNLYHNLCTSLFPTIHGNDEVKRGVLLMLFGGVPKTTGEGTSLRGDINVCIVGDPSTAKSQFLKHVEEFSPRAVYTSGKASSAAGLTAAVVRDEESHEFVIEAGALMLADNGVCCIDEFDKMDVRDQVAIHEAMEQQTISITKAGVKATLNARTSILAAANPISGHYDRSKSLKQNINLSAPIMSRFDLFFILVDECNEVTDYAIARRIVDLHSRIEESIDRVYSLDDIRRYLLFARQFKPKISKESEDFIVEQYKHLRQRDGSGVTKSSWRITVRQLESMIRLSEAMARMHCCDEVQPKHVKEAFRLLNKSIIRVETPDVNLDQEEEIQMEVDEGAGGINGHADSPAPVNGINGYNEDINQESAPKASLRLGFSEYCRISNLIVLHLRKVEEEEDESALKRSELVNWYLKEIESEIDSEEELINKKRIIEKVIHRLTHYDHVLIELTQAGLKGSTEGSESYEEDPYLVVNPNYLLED

DNA replication licensing factor MCM7 (Homo sapiens), sequence (P33993 whole entry): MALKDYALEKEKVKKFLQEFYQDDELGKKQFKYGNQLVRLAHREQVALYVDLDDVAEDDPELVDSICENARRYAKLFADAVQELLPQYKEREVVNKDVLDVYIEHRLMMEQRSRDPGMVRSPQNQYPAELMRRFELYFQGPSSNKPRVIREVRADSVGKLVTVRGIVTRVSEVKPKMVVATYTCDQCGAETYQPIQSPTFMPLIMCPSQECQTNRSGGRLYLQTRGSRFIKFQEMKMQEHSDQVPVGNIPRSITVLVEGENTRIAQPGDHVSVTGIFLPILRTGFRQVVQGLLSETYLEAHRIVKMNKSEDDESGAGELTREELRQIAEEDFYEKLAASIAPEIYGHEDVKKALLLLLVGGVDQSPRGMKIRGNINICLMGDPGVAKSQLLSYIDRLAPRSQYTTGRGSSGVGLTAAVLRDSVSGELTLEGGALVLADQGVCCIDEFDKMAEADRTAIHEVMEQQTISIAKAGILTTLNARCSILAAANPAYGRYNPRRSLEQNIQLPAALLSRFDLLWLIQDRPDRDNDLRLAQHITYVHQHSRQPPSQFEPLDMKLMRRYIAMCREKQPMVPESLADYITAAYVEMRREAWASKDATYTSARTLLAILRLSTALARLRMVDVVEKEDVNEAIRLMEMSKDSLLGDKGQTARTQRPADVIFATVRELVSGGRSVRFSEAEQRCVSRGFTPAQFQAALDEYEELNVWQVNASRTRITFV
DNA replication licensing factor MCM2 (Homo sapiens), sequence (P49736 whole entry): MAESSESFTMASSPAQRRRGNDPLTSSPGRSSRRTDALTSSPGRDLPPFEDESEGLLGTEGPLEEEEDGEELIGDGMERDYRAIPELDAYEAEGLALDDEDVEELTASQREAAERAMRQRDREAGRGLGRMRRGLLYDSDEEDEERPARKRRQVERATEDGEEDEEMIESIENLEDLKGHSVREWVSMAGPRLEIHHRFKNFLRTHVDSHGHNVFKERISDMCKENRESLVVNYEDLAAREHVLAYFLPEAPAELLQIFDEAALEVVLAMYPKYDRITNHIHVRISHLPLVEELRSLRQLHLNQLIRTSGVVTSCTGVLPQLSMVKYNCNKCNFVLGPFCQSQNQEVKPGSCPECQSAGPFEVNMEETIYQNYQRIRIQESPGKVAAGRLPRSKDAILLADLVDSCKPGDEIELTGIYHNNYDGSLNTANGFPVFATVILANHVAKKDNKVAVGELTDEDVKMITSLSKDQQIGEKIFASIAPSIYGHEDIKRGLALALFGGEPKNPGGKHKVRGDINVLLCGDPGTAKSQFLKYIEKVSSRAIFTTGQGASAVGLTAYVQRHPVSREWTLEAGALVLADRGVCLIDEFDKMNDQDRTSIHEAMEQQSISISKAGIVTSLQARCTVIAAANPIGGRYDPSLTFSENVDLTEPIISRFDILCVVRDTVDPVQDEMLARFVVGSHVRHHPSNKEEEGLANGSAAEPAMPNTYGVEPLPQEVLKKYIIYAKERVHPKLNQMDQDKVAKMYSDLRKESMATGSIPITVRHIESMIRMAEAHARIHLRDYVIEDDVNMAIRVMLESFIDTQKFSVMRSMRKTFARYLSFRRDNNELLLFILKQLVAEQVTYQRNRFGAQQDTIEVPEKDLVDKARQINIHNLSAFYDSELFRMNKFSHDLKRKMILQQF

- Activity [3]: Dose-dependent effect
- IC50 (NCI-H1975 [6]): 77 nM
- Activity [9]: 0.5
- Activity [11]: inactive
- Activity [13]: Active
- Activity [15]: 0.7
- Activity [16]: 0.5
Structure (SMILES): Cc1oc2c(c1C(=O)NCCCn1ccnc1)C(=O)c1ccccc1C2=O
- Activity (NCI-H1975 [1]): Active
- Activity (NCI-H1975 [2]): Active
- Activity [4]: Non-Toxic
- Activity (NCI-H1975 [5]): 48.8
- Activity (NCI-H1975 [7]): 27.7%
- selectivity ratio [8]: > 10
- Activity (NCI-H1975 [10]): 38%
- Activity (NCI-H1975 [12]): 18%
- selectivity ratio [14]: > 10
